Source: patent publication US5866556A, “Pyridinylbisphosphonates for use as a therapeutical agent” (Leiras Oy, priority 1994, dated 1999)
Read-outs that look alike come from different tables or passages of the source.

What was measured:
[1] = tested on: spontaneous bone resorption; assay: Effect on spontaneous bone resorption assessed by urinary tetracycline excretion from prelabeled rats; type: in vivo, Sprague-Dawley rat; conditions: for Inhibition of tetracycline excretion: n=5, mean (SE); for Inhibition of excretion of radiolabeled tetracycline / spontaneous bone resorption (in words): rats, s.c.
Description: Male Sprague-Dawley rats were used. From the first week of life, the rats were injected subcutaneously with a solution containing 10 μCi/ml of (7-^3 H(N))tetracycline dissolved in physiological saline. The injections were performed twice weekly for 6 weeks. Every animal received a total amount of 20 μCi radiolabeled tetracycline. All animals were given normal diet for growing animals and water ad libitum. One week after the last injection of radiolabeled tetracycline, the rats were weighed and feeding with diet for adult animals was started. At fifth day the rats were randomized into groups and housed in individual metabolic cages. 24-h urine collections were performed for ten days. From the second day [(2-pyridinylamino)methylidene]bisphosphonic acid tetraethylester, compound I, dissolved in physiological saline was injected subcutaneously at different dose levels daily for six days. Control animals received physiological saline. Urine volume was measured and the radioactivity in urine samples was determined by liquid scintillation counting. The data was calculated as the ratio of treated/control at each day for the determination of maximal inhibition of tetracycline excretion.
Excretion of unmetabolized tetracycline into urine reflects its removal from bone during resorptive processes and thus enables the continual monitoring of bone resorption.

[2] = tested on: immobilization induced osteoporosis (femur bone area); assay: Effect on immobilization induced osteoporosis (sciatic nerve section) in rats; type: in vivo, Sprague-Dawley rat; conditions: for Immobilized leg, femur total bone area: mean (SE), control 5.3 (0.6); for Femoral bone area in the immobilized leg / bone loss prevention (in words): sciatic nerve section
Description: Male Sprague-Dawley rats weighing 200±25 g were randomized by weight into groups and anesthetized with Hypnorm/Mebunat and Temgesic. A dorsolateral incision was made on the right or left hip through which the sciatic nerve was exposed, and a 0.5 cm section excised. The muscle and skin were sutured and the animal returned to its cage. The contralateral leg was left intact. The compound I dissolved in physiological saline was administered by subcutaneous injection daily at different dose levels from two days before the surgery until the day of 20 postneurectomy. Control animals received physiological saline. Animals double-labeled with fluorochrome at standardized time points were sacrificed at 21 days postneurectomy and their femora were removed. Femora were embedded in methylmetacrylate, sectioned, and stained. The metphyseal secondary spongiosa and the diaphyseal cortical bone of the femora were subjected to histomorphometric analysis. In control rats, femural total bone area decreased in the immobilized leg.

[3] = tested on: PTH-stimulated bone resorption, mice calvaria; assay: Inhibition of PTH-stimulated resorption of calvarial bone in vitro; type: cell-based, mouse; conditions: for Inhibition of bone resorption in vitro, mice calvaria (in words): except at very high, unphysiological concentrations, calcium release
Description: (§1) Newborn mice were labeled by a subcutaneous injection of ^45 Ca four days prior to sacrifice. Calvarial bone fragments were microdissected from the parietal bones, preincubated in culture medium with indomethacin, washed and then cultured for three days with and without the compound I. Bone resorption was stimulated by parathyroid hormone (PTH, 10 nM) and an inhibitory effect on this stimulated resorption was measured. […] For the determination of the binding of compound I to bone mineral, ^14 C-disodium clodronte tetrahydrate and hydroxyapatite crystals were incubated at room temperature in barbituric acid buffer at physiological pH in the absence and presence of the compound I in various concentrations. After two hours incubation, the mixture was centrifuged, and the percent of the total specifically bound radioactivity was measured from the supernatant. No binding of the compound I to hydroxyapatite was found at up to 500 μM concentration (Table 3).

[4] = Binding to bone mineral (hydroxyapatite crystals, 14C-clodronate); conditions: for Binding to bone mineral: two hours; for Binding to hydroxyapatite (in words): up to 500 μM, physiological pH, in vitro
Description: as §1

[5] = Pharmacokinetics: urinary excretion of parent compound and bioavailability from urine; type: in vivo, rat; conditions: for Urinary excretion 0-24 h as parent compound / dose excreted at 24 h: single dose 114 mg/kg; for Urinary excretion 0-24 h as parent compound: 1440 min; for dose excreted at 24 h: urine, read-out: Urinary excretion 0-24 h as parent compound
Description: (§2) Pharmacokinetics of the compound [(2-pyridinylamino)methylidene]bisphosphonic acid tetraethylester was studied in rats. Minor amounts of an intravenous dose was excreted as a parent compound during 24 hours into urine supporting extensive metabolism as well. About half of the oral dose of the said compound was absorbed in rats.
(§3) Bioavailability was determined from the total amount of compound excreted into urine during 24 hours or from the serum concentration data at different time points after oral administration and intravenous administration. The urine and serum samples were analyzed for the test compound I with high pressure liquid chromatographic methods. […] Bioavailability of compound I assessed by serum concentration data was 44%.

[6] = Pharmacokinetics: serum AUC and bioavailability from serum concentration data; type: in vivo; conditions: rat; for AUC(0-inf): single dose 114 mg/kg, read-out: AUC0->.infin.
Description: as §2, §3

[7] = listed as [(2-pyridinylamino)methylidene]bisphosphonic acid tetraethylester

SMILES: CCOP(=O)(OCC)C(Nc1ccccn1)P(=O)(OCC)OCC [I, [(2-pyridinylamino)methylidene]bisphosphonic acid tetraethylester]
- Inhibition of tetracycline excretion ([1]; 1 mg/kg s.c. daily for six days): 12.2 (6.4) %
- Inhibition of tetracycline excretion ([1]; 10 mg/kg s.c. daily for six days): 19.8 (5.9) %
- Inhibition of tetracycline excretion ([1]; 100 mg/kg s.c. daily for six days): 50.0 (6.1) %
- Inhibition of tetracycline excretion ([1]; 200 mg/kg s.c. daily for six days): 72.9 (2.6) %
- Inhibition of excretion of radiolabeled tetracycline / spontaneous bone resorption (in words) [1, 7]: decreased spontaneous bone resorption
- Inhibition of excretion of radiolabeled tetracycline / spontaneous bone resorption (in words) ([1]; listed as compound I): dose-dependently inhibited
- Immobilized leg, femur total bone area ([2]; 1 mg/kg s.c. daily, n=4): 6.0 (1.3) %
- Immobilized leg, femur total bone area ([2]; 75 mg/kg s.c. daily, n=5): 24.5 (2.5) %
- Immobilized leg, femur total bone area ([2]; 200 mg/kg s.c. daily, n=7): 35.5 (1.7) %
- Immobilized leg, femur total bone area ([2]; 37,5 mg/kg s.c. daily, n=5): 17.3 (2.0) %
- Mineral apposition rate of cortical bone ([2]; rats, s.c., data not presented): No deleterious effects
- Femoral bone area in the immobilized leg / bone loss prevention (in words) ([2]; rats, s.c., listed as [(2-pyridinylamino)methylidene]bisphosphonic acid tetraethylester): effective in preventing bone loss
- Femoral bone area in the immobilized leg / bone loss prevention (in words) ([2]; rats, s.c., listed as compound I): increased dose-dependently femoral bone area in the immobilized leg
- Inhibition of PTH-stimulated resorption, 100 (PTH - x)/PTH ([3]; 1 μmol/l, PTH 10 nM, three days culture): No inhibiton
- Inhibition of PTH-stimulated resorption, 100 (PTH - x)/PTH ([3]; 10 μmol/l, PTH 10 nM, three days culture): No inhibition
- Inhibition of PTH-stimulated resorption, 100 (PTH - x)/PTH ([3]; 100 μmol/l, PTH 10 nM, three days culture): No inhibition
- inhibition at 1000 µM ([3]; Mus musculus, 72 h, 1000 μmol/l, PTH 10 nM, three days culture, (SE), read-out: Inhibition of PTH-stimulated resorption, 100 (PTH - x)/PTH): 12.9%
- Inhibition of bone resorption in vitro, mice calvaria (in words) [3]: no inhibition of resorption in vitro was shown except at very high, unphysiological concentrations
- Inhibition of bone resorption in vitro, mice calvaria (in words) [3, 7]: No effect
- Binding to bone mineral ([4]; 5 μmol/l): No binding
- Binding to bone mineral ([4]; 100 μmol/l): No binding
- Binding to bone mineral ([4]; 200 μmol/l): No binding
- Binding to bone mineral ([4]; 500 μmol/l): No binding
- Binding to hydroxyapatite (in words) [4, 7]: did not show either any binding on hydroxyapatite crystals in vitro
- Binding to hydroxyapatite (in words) ([4]; listed as compound I): No binding
- Urinary excretion 0-24 h as parent compound ([5]; i.v., 114 mg/kg): 13.6 % of dose
- Urinary excretion as a parent compound during 24 hours (in words) ([5]; intravenous dose, rats): Minor amounts
- Absorption of the oral dose (in words) ([5]; oral, rats): About half
- Urinary excretion 0-24 h as parent compound ([5]; p.o., 114 mg/kg): 7.8 % of dose
- bioavailability at 24 h ([5]; rat, po, p.o. vs i.v., 114 mg/kg, urine 0-24 h, read-out: Bioavailability F from urinary excretion): 58%
- dose excreted at 24 h ([5]; rat, iv, 114 mg/kg, i.v.): 14%
- dose excreted at 24 h ([5]; rat, po, 114 mg/kg, p.o.): < 10%
- AUC(0-inf) ([6]; iv): 139000 ng·h/mL
- bioavailability ([6]; po, p.o. vs i.v., 114 mg/kg, read-out: Bioavailability F from serum concentration data (AUC)): 44%
- AUC(0-inf) ([6]; po): 60700 ng·h/mL
